ChEMBL document CHEMBL1201862, “PubChem BioAssay data set” (2004)
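1) Cells in 96-well plates. 2) Compound, 48 h, 5 concentrations. 3) Linear interpolation between surrounding doses. 4) Unreached endpoint = highest concentration. GI50: concentration for 50% inhibition of growth.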 Active and inactive are the calls of the source. Cut-off read from the data, not from the text of the source: active = GI50 up to about 1.1 µM and inactive = higher.

Legend:
Assay in all cases: inhibition of tumour cell growth, NCI panel, 48 h
A498 = tested on: A498
CCRF-CEM = tested on: CCRF-CEM
COLO 205 = tested on: COLO 205
HCT-15 = tested on: HCT-15
M14 = tested on: M14
MDA-MB-435 = tested on: MDA-MB-435
MDA-N = tested on: MDA-N
NCI/ADR-RES = tested on: NCI/ADR-RES
PC-3 = tested on: PC-3
SK-MEL-5 = tested on: SK-MEL-5
SNB-75 = tested on: SNB-75
T47D = tested on: T47D
UO-31 = tested on: UO-31
DU-145 = tested on: DU-145
Malme-3M = tested on: Malme-3M
NCI-H460 = tested on: NCI-H460

Structure (SMILES) | GI50 (A498) | GI50 (CCRF-CEM) | GI50 (COLO 205) | GI50 (HCT-15) [µM] | GI50 (M14) | GI50 (MDA-MB-435) | GI50 (MDA-N) | GI50 (NCI/ADR-RES) | GI50 (PC-3) | GI50 (SK-MEL-5) | GI50 (SNB-75) | GI50 (T47D) | GI50 (UO-31) | GI50 (DU-145) | GI50 (Malme-3M) | GI50 (NCI-H460)
CCOC(O)(NC(=O)C(C(F)(F)F)C(F)(F)F)C(F)(F)F (stereo not given) | > 100 µM (inactive) | > 100 µM (inactive) | > 100 µM (inactive) | > 100 | > 100 µM (inactive) | > 100 µM (inactive) | > 100 µM (inactive) | > 100 µM (inactive) | > 100 µM (inactive) | > 100 µM (inactive) | > 100 µM (inactive) | > 100 µM (inactive) | > 100 µM (inactive) | – | – | –
COc1cc(/C=C2\N=C(c3ccccc3)N(c3ccc(S(=O)(=O)Nc4nccs4)cc3)C2=O)ccc1O | > 100 µM (inactive) | 70.5 µM (inactive) | > 100 µM (inactive) | 57.5 | > 100 µM (inactive) | 95.3 µM (inactive) | – | > 100 µM (inactive) | 82.6 µM (inactive) | 75.9 µM (inactive) | 62.8 µM (inactive) | 85.5 µM (inactive) | > 100 µM (inactive) | > 100 µM (inactive) | > 100 µM (inactive) | > 100 µM (inactive)
CC1=NN(c2nc(N)nc(CSCc3nc(N)nc(N(C)C)n3)n2)C(C)(C)C1 | > 100 µM (inactive) | > 100 µM (inactive) | > 100 µM (inactive) | > 100 | > 100 µM (inactive) | > 100 µM (inactive) | – | > 100 µM (inactive) | > 100 µM (inactive) | > 100 µM (inactive) | 60.5 µM (inactive) | > 100 µM (inactive) | > 100 µM (inactive) | > 100 µM (inactive) | – | > 100 µM (inactive)
CC(C)C(=O)OCC1OC(n2c(Br)nc3c(=O)[nH]c(N)nc32)C(OC(=O)C(C)C)C1OC(=O)C(C)C (stereo not given) | – | – | 90.4 µM (inactive) | > 100 | > 100 µM (inactive) | – | 41 µM (inactive) | > 100 µM (inactive) | 21.6 µM (inactive) | > 10 µM (inactive) | 83.9 µM (inactive) | 54.8 µM (inactive) | > 100 µM (inactive) | > 100 µM (inactive) | > 100 µM (inactive) | 23.7 µM (inactive)
Cn1nc(-c2ccc(S(=O)(=O)N/C(=N/c3ccc(Cl)cc3)NN)s2)cc1C(F)(F)F | 16.4 µM (inactive) | – | 17.1 µM (inactive) | 21.8 | 17.5 µM (inactive) | – | 14.2 µM (inactive) | 21.8 µM (inactive) | 16.9 µM (inactive) | 18.2 µM (inactive) | 16.3 µM (inactive) | 13.3 µM (inactive) | 14.6 µM (inactive) | 17.1 µM (inactive) | – | 19.9 µM (inactive)
O=C(OCCN=c1c2ccccc2ccc2ccccc12)c1cc([N+](=O)[O-])cc([N+](=O)[O-])c1 | – | > 100 µM (inactive) | > 100 µM (inactive) | > 100 | > 100 µM (inactive) | > 100 µM (inactive) | > 100 µM (inactive) | > 100 µM (inactive) | > 100 µM (inactive) | > 100 µM (inactive) | > 100 µM (inactive) | > 100 µM (inactive) | > 100 µM (inactive) | > 100 µM (inactive) | 21.5 µM (inactive) | > 100 µM (inactive)
COc1ccc(C2=C(OC(=O)N(C)C)c3cccn3-c3cc(Cl)ccc3S2)cc1 | – | 8.07 µM (inactive) | > 10 µM (inactive) | > 10 | > 10 µM (inactive) | > 10 µM (inactive) | > 10 µM (inactive) | – | 5.64 µM (inactive) | > 10 µM (inactive) | > 10 µM (inactive) | 5.3 µM (inactive) | – | > 10 µM (inactive) | > 10 µM (inactive) | –
CSc1nc(-c2ccc(C)cc2)c(C#N)c(=O)[nH]1 | > 100 µM (inactive) | > 100 µM (inactive) | > 100 µM (inactive) | > 100 | > 100 µM (inactive) | > 100 µM (inactive) | – | > 100 µM (inactive) | > 100 µM (inactive) | > 100 µM (inactive) | 43.7 µM (inactive) | 40.5 µM (inactive) | 52 µM (inactive) | > 100 µM (inactive) | – | > 100 µM (inactive)
Brc1cccc(C2(CCCC3(c4cccc(Br)n4)OCCO3)OCCO2)n1 | > 100 µM (inactive) | – | > 100 µM (inactive) | > 100 | > 100 µM (inactive) | > 100 µM (inactive) | > 100 µM (inactive) | > 100 µM (inactive) | > 100 µM (inactive) | > 100 µM (inactive) | 23.9 µM (inactive) | > 100 µM (inactive) | > 100 µM (inactive) | – | – | > 100 µM (inactive)
O=C1c2ccccc2-c2nc(-c3ccccc3)cc3c2c1nc1ccccc13 | – | 0.59 µM (active) | 25.6 µM (inactive) | 11.2 | 5.55 µM (inactive) | 1.87 µM (inactive) | 1.89 µM (inactive) | 14.5 µM (inactive) | 4.08 µM (inactive) | 2.67 µM (inactive) | – | 21.5 µM (inactive) | 11.4 µM (inactive) | 13.9 µM (inactive) | 4.7 µM (inactive) | –
